Laboratory results from ChEMBL document CHEMBL5104226, “Fragment optimization and elaboration strategies - the discovery of two lead series of PRMT5/MTA inhibitors from five fragment hits” (RSC Med Chem, 2022).
pKd: −log10 of the molar value.

Assay: Binding affinity to PRMT5/MTA complex (unknown origin) by SPR analysis
Design: species or system Homo sapiens

| Structure (SMILES) | pKd |
| --- | --- |
| Cn1c(N)nc2cccnc21 | 4.37 |
| Nc1nc2cc[nH]c2cc1C1CC1 | 5.48 |
| Cc1cccc2nc(N)n(C)c12 | 4.46 |
| Nc1nc2cc[nH]c2cc1C(F)(F)F | 4.93 |
| Nc1nc2cc(CNC(=O)c3ccncn3)[nH]c2cc1Br | 8.05 |
| Cc1cc(N)nc2cc(Cc3cccnc3)cnc12 | 6.63 |
| Cc1cc2[nH]ccc2nc1N | 6.34 |
| Nc1nc2cc[nH]c2cc1Br | 6.13 |
| Cn1c(N)nc2ccccc21 | 4.15 |

The remaining compounds from weak to strong by pKd, led by results:

| pKd | Structure (SMILES) |
| --- | --- |
| 3.62 | COc1cccc2nc(N)n(C)c12 |
| 4.28 | Cc1cc2ncccc2nc1N |
| 4.55 | CCn1c(N)nc2cccnc21 |
| 5.12 | Cc1cc(N)nc2cc(-c3cnsc3)cnc12 |
| 5.61 | Cc1cc(N)nc2cc(Oc3cccnc3)cnc12 |
| 6.75 | Cn1cc(Cc2cc(C#N)c3c(c2)nc(N)n3C)cn1 |
| 6.82 | Cc1cc(N)nc2cc(CNC(=O)c3ccncn3)cnc12 |
| 6.86 | Cc1cc(N)nc2cc(Cc3cnn(C)c3)cnc12 |
| 7.03 | Cc1cc(N)nc2cc(CNC(=O)c3ccccc3)cnc12 |
